# Source: US10258980B2, “Pure chelation process” (C LAB PHARMA INTERNATIONAL, S.A., priority 2014, dated 2019)
# Experiments:
# [1] = equal amounts of chelated copper mixed with water
# [2] = dry powder rubbed on the surface of skin
compound,measurement,setting,value
O=C(O)c1cccnc1.[Cu] [copper nicotinic acid],time to change to the oxidized blue color,[1],a few minutes
same,"copper content by EDS, dry powder form",dry powder,22.90%
same,copper content by EDS after sample is wetted,wet sample,21.7%
same,change of EDS spectra after wetting,wet versus dry sample,did not change significantly
same,"disappearance from the surface of skin when rubbed, dry powder",[2],disappeared from the surface of the skin
